Source: US20110028710A1, “PROCESS FOR THE RECOVERY OF HCL FROM A DILUTE SOLUTION THEREOF AND EXTRACTANT COMPOSITION FOR USE THEREIN” (HCL CLEANTECH LTD., priority 2008, published 2011)

Tests used:
[1] = analogous water-soluble acids of the prior-art strong acids; cited from earlier work
[2] = pH of 1N NaCl solution after contact with the organic acid (indirect acid strength test); details: 1 mol acid at 0.2 molar or higher in organic solvent contacted with equivalent NaCl in 1N aqueous solution
Text: The stronger the organic acid, the more the reaction moves in the right direction and the lower is the pH of the formed aqueous solution.

Compound	pKa [1]	pH of the sodium chloride solution [2]
O=C(O)c1c(Cl)ccc(Cl)c1C(=O)O [3,6-dichlorophtalic]	1.46	
CCCCCCCCCCCC(=O)O [Lauric, lauric acid]		> 5
